Literature values as cited in PubChem BioAssay AID1259409 (Chemical Carcinogenesis Research Information System (CCRIS), 2018).

System: rodent chemically induced tumor inhibition, incidence and multiplicity
Assay: CCRIS tumor inhibitor studies

In the case of `CC(C)(C)N=C=O`, the “tumour outcome (control, treated, inhibition, significance)” value (Carcinogen: 7,12-DIMETHYLBENZ(A)ANTHRACENE, 57-97-6, Dose [Inhibitor]: 0.013 MMOL/G IN DIET BEGINNING 1 WK AFTER CARCINOGEN ADMINISTRATION (STUDY DURATION: 23 WK), Route [Inhibitor]: ORAL, Species: RAT, Strain/Sex: SPRAGUE-DAWLEY/FEMALE, Target Tissue: Type of Lesion: MAMMARY GLAND: TUMOR, Dose [Carcinogen]: 12 MG DMBA IN 1.0 ML OLIVE OIL ONCE, Promoter: NONE USED) is given as 100%, 50%, 50%, p<0.001.
For `O=C(O)/C=C/C(=O)O`, the “tumour outcome (control, treated, inhibition, significance)” value (Carcinogen: 3'-METHYL-4-DIMETHYLAMINOAZOBENZENE, 55-80-1, Dose [Inhibitor]: 1% IN DIET AND 0.025% IN DRINKING WATER CONCOMITANTLY FOR 51 WK STARTING AT COMPLETION OF CARCINOGEN TREATMENT (STUDY DU, Route [Inhibitor]: ORAL, Species: RAT, Strain/Sex: DONRYU/MALE, Target Tissue: Type of Lesion: LIVER: CARCINOMA, Dose [Carcinogen]: 0.06% IN DIET FOR 50 D, Promoter: NONE USED) is listed as 11/13 (85%), 2/15 (13%), 85%, p<0.0002, the “tumour outcome (control, treated, inhibition, significance)” value (Carcinogen: 4-(METHYLNITROSAMINO)-1-(3-PYRIDYL)-1-BUTANONE [64091-50-5], Dose [Inhibitor]: 80 MMOL/KG IN DIET FOR 17 WK BEGINNING 1 WK PRIOR TO FIRST CARCINOGEN DOSE (STUDY DURATION: 17 WK), Route [Inhibitor]: ORAL, Species: MOUSE, Strain/Sex: A/J/FEMALE, Target Tissue: Type of Lesion: LUNG: ADENOMA, Dose [Carcinogen]: 10 UMOL ONCE 1 WK POST FIRST INHIBITOR DOSE (STUDY DURATION: 17 WK), Promoter: NONE) is listed as 100%, 100%, 0%, not significant and the “tumour outcome (control, treated, inhibition, significance)” value (Carcinogen: 4-(METHYLNITROSAMINO)-1-(3-PYRIDYL)-1-BUTANONE [64091-50-5], Dose [Inhibitor]: 80 MMOL/KG IN DIET FOR 53 WK BEGINNING 1 WK PRIOR TO FIRST CARCINOGEN DOSE (STUDY DURATION: 53 WK), Route [Inhibitor]: ORAL, Species: MOUSE, Strain/Sex: A/J/FEMALE, Target Tissue: Type of Lesion: LUNG: ADENOMA OR ADENOCARCINOMA, Dose [Carcinogen]: 10 UMOL ONCE 1 WK POST FIRST INHIBITOR DOSE (STUDY DURATION: 53 WK), Promoter: NONE) is listed as 100%, 97%, 3%, not significant. The “tumour outcome (control, treated, inhibition, significance)” value (Carcinogen: 4-(METHYLNITROSAMINO)-1-(3-PYRIDYL)-1-BUTANONE [64091-50-5], Dose [Inhibitor]: 160 MMOL/KG IN DIET FOR 17 WK BEGINNING 1 WK PRIOR TO FIRST CARCINOGEN DOSE (STUDY DURATION: 17 WK), Route [Inhibitor]: ORAL, Species: MOUSE, Strain/Sex: A/J/FEMALE, Target Tissue: Type of Lesion: LUNG: ADENOMA, Dose [Carcinogen]: 10 UMOL ONCE 1 WK POST FIRST INHIBITOR DOSE (STUDY DURATION: 17 WK), Promoter: NONE) was 100%, 100%, 0%, not significant, the “tumour outcome (control, treated, inhibition, significance)” value (Carcinogen: 4-(METHYLNITROSAMINO)-1-(3-PYRIDYL)-1-BUTANONE [64091-50-5], Dose [Inhibitor]: 160 MMOL/KG IN DIET FOR 53 WK BEGINNING 1 WK PRIOR TO FIRST CARCINOGEN DOSE (STUDY DURATION: 53 WK), Route [Inhibitor]: ORAL, Species: MOUSE, Strain/Sex: A/J/FEMALE, Target Tissue: Type of Lesion: LUNG: ADENOMA OR ADENOCARCINOMA, Dose [Carcinogen]: 10 UMOL ONCE 1 WK POST FIRST INHIBITOR DOSE (STUDY DURATION: 53 WK), Promoter: NONE) was 100%, 97%, 3%, not significant and the “tumour outcome (control, treated, inhibition, significance)” value (Carcinogen: POTASSIUM 1-METHYL-7-[2-(5-NITRO-2-FURYL)VINYL]-4-OXO-1,4-DIHYDRO-1,8- NAPHTHYRIDINE-3-CARBOXYLATE, 29676-95-7, Dose [Inhibitor]: 1% IN DIET FOR 39 WK STARTING AT COMPLETION OF CARCINOGEN TREATMENT (STUDY DURATION: 53 WK), Route [Inhibitor]: ORAL, Species: MOUSE, Strain/Sex: ICR/MALE, Target Tissue: Type of Lesion: FORESTOMACH: SQUAMOUS CELL CARCINOMA, Dose [Carcinogen]: 0.012% DIET FOR 14 WK, Promoter: NONE USED) was 7/30 (23%), 1/32 (3%), 87%, p<0.05. For the same compound, the “tumour outcome (control, treated, inhibition, significance)” value (Carcinogen: POTASSIUM 1-METHYL-7-[2-(5-NITRO-2-FURYL)VINYL]-4-OXO-1,4-DIHYDRO-1,8- NAPHTHYRIDINE-3-CARBOXYLATE, 29676-95-7, Dose [Inhibitor]: 1% IN DIET FOR 39 WK STARTING AT COMPLETION OF CARCINOGEN TREATMENT (STUDY DURATION: 53 WK), Route [Inhibitor]: ORAL, Species: MOUSE, Strain/Sex: ICR/MALE, Target Tissue: Type of Lesion: FORESTOMACH: SQUAMOUS CELL PAPILLOMA, Dose [Carcinogen]: 0.012% IN DIET FOR 14 WK, Promoter: NONE USED) was 13/30 (43%), 0/32 (0%), 100%, not significant, the “tumour outcome (control, treated, inhibition, significance)” value (Carcinogen: POTASSIUM 1-METHYL-7-[2-(5-NITRO-2-FURYL)VINYL]-4-OXO-1,4-DIHYDRO-1,8- NAPHTHYRIDINE-3-CARBOXYLATE, 29676-95-7, Dose [Inhibitor]: 1% IN DIET FOR 39 WK STARTING AT COMPLETION OF CARCINOGEN TREATMENT (STUDY DURATION: 53 WK), Route [Inhibitor]: ORAL, Species: MOUSE, Strain/Sex: ICR/MALE, Target Tissue: Type of Lesion: LUNG: ADENOCARCINOMA, Dose [Carcinogen]: 0.012% IN DIET FOR 14 WK, Promoter: NONE USED) was 2/30 (7%), 11/32 (34%), -386%, not significant and the “tumour outcome (control, treated, inhibition, significance)” value (Carcinogen: POTASSIUM 1-METHYL-7-[2-(5-NITRO-2-FURYL)VINYL]-4-OXO-1,4-DIHYDRO-1,8- NAPHTHYRIDINE-3-CARBOXYLATE, 29676-95-7, Dose [Inhibitor]: 1% IN DIET FOR 39 WK STARTING AT COMPLETION OF CARCINOGEN TREATMENT (STUDY DURATION: 53 WK), Route [Inhibitor]: ORAL, Species: MOUSE, Strain/Sex: ICR/MALE, Target Tissue: Type of Lesion: LUNG: PAPILLOTUBULAR ADENOCARCINOMA, Dose [Carcinogen]: 0.012% IN DIET FOR 14 WK, Promoter: NONE USED) was 27/30 (90%), 0/32 (0%), 100%, p<0.01. For the same compound, the “tumour outcome (control, treated, inhibition, significance)” value (Carcinogen: THIOACETAMIDE, 62-55-5, Dose [Inhibitor]: 1% IN DIET FOR 48 WK GIVEN POST CARCINOGEN (STUDY DURATION: 88 WK), Route [Inhibitor]: ORAL, Species: MOUSE, Strain/Sex: ICR/MALE, Target Tissue: Type of Lesion: LIVER: HEPATOCELLULAR CARCINOMA, Dose [Carcinogen]: 0.035% IN DIET FOR 40 WK, Promoter: NONE USED) was 11/24 (46%), 0/15 (0%), 100%, p<0.01.
For `O=c1oc2ccccc2c(O)c1Cc1c(O)c2ccccc2oc1=O`, the “tumour outcome (control, treated, inhibition, significance)” value (Carcinogen: 17BETA-ESTRADIOL, 50-28-2, Dose [Inhibitor]: 0, 0.09% IN DIET BEGINNING 5 D POST CARCINOGEN DOSE (STUDY DURATION: 7.5 MO), Route [Inhibitor]: ORAL, Species: HAMSTER, Strain/Sex: SYRIAN/MALE, Target Tissue: Type of Lesion: KIDNEY: TUMOR, Dose [Carcinogen]: 25 MG PELLET REPLACED WITH A SECOND PELLET AFTER 4 MO, Promoter: NONE USED) is listed as 13/13 (100%), 7/12 (58%), 42%, p<0.05.
For `NCC(CC(=O)O)c1ccc(Cl)cc1` (stereo unspecified), the “tumour outcome (control, treated, inhibition, significance)” value (Carcinogen: N-METHYL-N'-NITRO-N-NITROSOGUANIDINE, 70-25-7, Dose [Inhibitor]: 0, 4 MG/KG IN NACL INJECTED 1/2 D FOR DURATION OF STUDY BEGINNING 1 WK POST CARCINOGEN DOSE (STUDY DURATION: 52 WK), Route [Inhibitor]: INTRAPERITONEAL, Species: RAT, Strain/Sex: WISTAR/MALE, Target Tissue: Type of Lesion: STOMACH: ADENOCARCINOMA, Dose [Carcinogen]: 50 UG/ML IN DRINKING WATER FOR 25 WK, Promoter: NONE USED) is listed as 13/19 (68%), 5/20 (25%), 63%, not calculated, the “tumour outcome (control, treated, inhibition, significance)” value (Carcinogen: N-METHYL-N'-NITRO-N-NITROSOGUANIDINE, 70-25-7, Dose [Inhibitor]: 0, 8 MG/KG BW 1/2 D FOR 25 WK BEGINNING POST CARCINOGEN TREATMENT (STUDY DURATION: 52 WK), Route [Inhibitor]: SUBCUTANEOUS, Species: RAT, Strain/Sex: WISTAR/MALE, Target Tissue: Type of Lesion: STOMACH: TUMOR, Dose [Carcinogen]: 50 UG/ML IN DRINKING WATER FOR 25 WK, Promoter: NONE USED) is listed as 19/20 (95%), 10/20 (50%), 47%, p<0.001 and the “tumour outcome (control, treated, inhibition, significance)” value (Carcinogen: N-METHYL-N'-NITRO-N-NITROSOGUANIDINE, 70-25-7, Dose [Inhibitor]: 0, 8 MG/KG IN NACL INJECTED 1/2 D FOR DURATION OF STUDY BEGINNING 1 WK POST CARCINOGEN DOSE (STUDY DURATION: 52 WK), Route [Inhibitor]: INTRAPERITONEAL, Species: RAT, Strain/Sex: WISTAR/MALE, Target Tissue: Type of Lesion: STOMACH: ADENOCARCINOMA, Dose [Carcinogen]: 50 UG/ML IN DRINKING WATER FOR 25 WK, Promoter: NONE USED) is listed as 13/19 (68%), 5/18 (28%), 59%, not calculated. For the same compound, the “tumour outcome (control, treated, inhibition, significance)” value (Carcinogen: N-METHYL-N'-NITRO-N-NITROSOGUANIDINE, 70-25-7, Dose [Inhibitor]: 0, 8 MG/KG/BW SUSPENSION IN OLIVE OIL 1/2 D BEGINNING POST CARCINOGEN TREATMENT AND CONTINUING FOR DURATION OF STUDY (ST, Route [Inhibitor]: SUBCUTANEOUS, Species: RAT, Strain/Sex: WISTAR/MALE, Target Tissue: Type of Lesion: STOMACH: ADENOCARCINOMA, Dose [Carcinogen]: 50 UG/ML IN DRINKING WATER FOR 25 WK, Promoter: NONE USED) was 16/20 (80%), 8/20 (40%), 50%, p<0.05.
